Results published in US9101628B2, “Methods and composition of treating a flaviviridae family viral infection” (The Board of Trustees of the Leland Stanford Junior …, priority 2007, dated 2015).

Tested on: HCV RNA replication
Experiment: RNA replication inhibition assay (luciferase reporter-linked HCV genome)
Details: Hepatitis C virus, percentage of untreated control population; for activity at 5 µM: read-out: Residual Luciferase activity, 5 micromolar; for activity at 10 µM: read-out: Residual Luciferase activity, 10 micromolar

Row | SMILES | activity at 5 µM [%] | activity at 10 µM [%]
1 | Cc1cc2ncn(Cc3ccc(Cl)cc3)c2cc1Cl [Compound 65] | < 80 | < 55
2 | Cc1cc2c(ncn2Cc2ccc(Cl)cc2)c([N+](=O)[O-])c1C [Compound 66] | < 80 | < 55
3 | Cc1cc2c(ncn2Cc2ccc(Cl)cc2)c(N)c1C [Compound 67] | < 80 | < 80
4 | CC(=O)Nc1c(C)c(C)cc2c1ncn2Cc1ccc(Cl)cc1 [Compound 68] | > 80 | > 80
5 | Cc1cc2c(ncn2Cc2ccc(Cl)cc2)c(NC(=O)C(C)C)c1C [Compound 69] | > 80 | < 80
6 | Cc1cc2c(ncn2Cc2ccc(Cl)cc2)c(NC(=O)C(F)(F)F)c1C [Compound 70] | > 80 | > 80
7 | Cc1cc2c(ncn2Cc2ccc(Cl)cc2)c(NC(=O)c2ccccc2)c1C [Compound 71] | > 80 | > 80
8 | CCCCNC(=O)Nc1c(C)c(C)cc2c1ncn2Cc1ccc(Cl)cc1 [Compound 72] | > 80 | > 80
9 | CCN(CC)c1c(C)c(C)cc2c1ncn2Cc1ccc(Cl)cc1 [Compound 73] | < 80 | < 55
10 | Cc1ccccc1Cn1cnc2c(NS(C)(=O)=O)c(C)c(C)cc21 [Compound 74] | > 80 | > 80
11 | Cc1cccc(Cn2cnc3c(NS(C)(=O)=O)c(C)c(C)cc32)c1 [Compound 75] | > 80 | < 80
12 | Cc1cc2c(nc(C)n2Cc2ccccc2)c(NS(C)(=O)=O)c1C [Compound 76] | > 80 | < 80
13 | Cc1cccc(Cn2c(C)nc3c(NS(C)(=O)=O)c(C)c(C)cc32)c1 [Compound 77] | > 80 | < 80
14 | Cc1cccc(Cn2cnc3c(NS(=O)(=O)C(F)(F)F)c(C)c(C)cc32)c1 [Compound 78] | < 55 | < 20
15 | Cc1cc2c(ncn2C)c(NS(C)(=O)=O)c1C [Compound 79] | < 80 | > 80
16 | Cc1cccc(Cn2cnc3c(NS(=O)(=O)c4ccc(F)cc4)c(C)c(C)cc32)c1 [Compound 80] | < 55 | < 80
17 | Cc1cc2c(ncn2Cc2ccc(Cl)cc2)c(CS(C)(=O)=O)c1C [Compound 81] | > 80 | < 80
18 | Cc1cc2c(ncn2Cc2ccc(Cl)cc2)c(NS(=O)(=O)c2cccc(Cl)c2)c1C [Compound 82] | > 80 | > 80
19 | Clc1ccc(Cn2cnc3ccncc32)cc1 [Compound 83] | < 80 | < 80
20 | Clc1ccc(Cn2cnc3cnccc32)cc1 [Compound 84] | < 80 | > 80
21 | Clc1ccc(Cn2cnc3cccnc32)cc1 [Compound 85] | > 80 | < 80
22 | Clc1ccc(Cn2cnc3ncccc32)cc1 [Compound 86] | > 80 | < 80
23 | Cc1cc2nc(C(C)O)n(Cc3ccc(Cl)cc3)c2cc1C (centres unmarked) [Compound 87] | < 55 | < 55
24 | Cc1cc2nc(C(C)N3CCCC3)n(Cc3ccc(Cl)cc3)c2cc1C (centres unmarked) [Compound 88] | < 55 | < 20
25 | Cc1cc2nc([C@H](C)N3CCC[C@H]3CO)n(Cc3ccc(Cl)cc3)c2cc1C [Compound 89] | < 55 | < 55
26 | Cc1cc2nc([C@@H](C)C3CCC[C@H]3CO)n(Cc3ccc(Cl)cc3)c2cc1C (some centres unmarked) [Compound 90] | < 80 | < 55
27 | Cc1cc2nc([C@H](C)N3CCC[C@@H]3CO)n(Cc3ccc(Cl)cc3)c2cc1C [Compound 91] | > 80 | > 80
28 | Cc1cc2nc([C@@H](C)N3CCC[C@@H]3CO)n(Cc3ccc(Cl)cc3)c2cc1C [Compound 92] | < 55 | < 20
